These results are taken from US8603989B2, “Method for treating and preventing kidney stones employing an SGLT2 inhibitor and composition containing same” (Bristol-Myers Squibb Company, priority 2008, dated 2013).

In one assay the test system is diabetic patients. Description: 12-week treatment of diabetic patients: urine glucose, HbA1c, urine volume (Table 5). It is filed as in vivo, human.
Assay [1] concerns human SGLT2 (hSGLT2) relative to human SGLT1 (hSGLT1). The note with it: ratio of EC50 in favor of SGLT2.
Protocol: Selectivity for SGLT2 of a given inhibitor can be determined by comparing the EC50 values measured in the SGLT1 and SGLT2 assay. […] Cells expressing hSGLT1 or hSGLT2 were maintained using standard cell culture techniques. Assays for sodium-dependent glucose transport in 96-well plates were initiated by adding 100 μl/well of protein-free assay buffer containing sodium (Hepes/Tris pH 7.4, 137 mM NaCl, 5.4 mM KCl, 2.8 mM CaCl2, 1.2 mM MgSO4), 10 μM ^14C-AMG and inhibitor or dimethyl sulfoxide (DMSO) vehicle, and plates were incubated for 2 h at 37° C. Sodium-dependent ^14C-AMG uptake was calculated by subtracting the counts per minute (CPM) observed under sodium-free uptake conditions from the counts observed under sodium-containing conditions. Inhibitors were assayed at various concentrations in triplicate in the presence of sodium, and the percent inhibition was calculated by comparing CPM in inhibitor-containing wells with CPM in wells containing only DMSO vehicle. Phlorizin, a known SGLT inhibitor, was evaluated in parallel in every assay. A dose-response curve was fitted to an empirical four-parameter model using XL Fit (IDBS, Guilford, UK) to determine the inhibitor concentration at half-maximal response (EC50). SGLT2 selectivity is represented as a ratio of EC50 in favor of SGLT2.
Another assay concerns healthy subjects. The note with it: healthy subjects, 5, 20, 50 or 100 mg, within 24 hours, indirect comparison.
A further assay concerns type 2 diabetic patients. The text has this:
C-aryl glucoside SGLT2 inhibitors are known to reduce blood glucose levels in diabetic patients, see U.S. Pat. No. 6,774,112, which is incorporated herein by reference in its entirety, but not known to increase urine volume. […] Metformin reduces plasma glucose concentration by non-renal mechanisms and is not known to induce glucosuria. […] On day 1 and day 14, the patients were examined for the levels of glucosuria and changes in urine volumes.

A further assay concerns patients with diabetes. The following applies: patients with diabetes, 5, 25 or 100 mg.
The mark [2] stands for this setting: 2.5-50 mg, after 12 weeks of treatment.

Description for patients with diabetes: The levels of urine glucose of all subjects are shown in the plot and the mean urine glucose is in the darker lines.

On to `CN(C)C(=N)N=C(N)N` [Metformin, reference compound], for which the “HbA1c reduction from baseline” value in the assay with diabetic patients (1500 mg metformin, 12 weeks) was determined as 0.73%.

Consider `CCOc1ccc(Cc2cc([C@@H]3O[C@H](CO)[C@@H](O)[C@H](O)[C@H]3O)ccc2Cl)cc1` [dapagliflozin], for which the “selectivity for SGLT2 relative to SGLT1” value in assay [1] is “High selectivity for SGLT2”.

On to `CCOc1ccc(Cc2cc([C@@H]3O[C@H](CO)[C@@H](O)[C@H](O)[C@H]3O)ccc2Cl)cc1` [dapagliflozin PGS, dapagliflozin (S)-propylene glycol solvate], for which, in the assay on diabetic patients (setting [2]), the OGT result was “improved” and the “reduced HbAlC levels” value was 0.71-0.9%. In addition, in the assay with healthy subjects, the “glucosuric effect, loss of calories in the urine as compared to GSK 869,682” value is “significant loss of calories in the urine”. Moreover, in the assay on type 2 diabetic patients (two-week period), the “fasting serum glucose (FSG) levels” value is “Dose-dependent reduction”, the “postprandial glucose levels in oral glucose tolerance tests (OGTT)” value is on record as “reduced” and the urine volumes entry is listed as “no increase”. Besides, the “urinary glucose levels within a 24-hour time period” value in the assay on type 2 diabetic patients (versus placebo, FIG. 3) is “increased”. In the assay on patients with diabetes, the “urine glucose excretion compared to placebo” value was “higher”.
